# In patent publication US20240018123A1, “COMPOUND FOR INHIBITING OR DISINTEGRATING ANDROGEN RECEPTOR, AND PHARMACEUTICAL USE THEREOF” (KOREA RESEARCH INSTITUTE OF CHEMICAL TECHNOLOGY, priority 2020, published 2024):
# Like-named read-outs stand apart in the source and are kept apart here.
# Legend:
# Androgen receptor (AR) = biological target: T1, Androgen receptor (AR) (Homo sapiens, UniProt P10275, T878A); test: Assessment of AR proteolytic activity (Western blotting of LNCap cell lysates); assay type: cell-based; details: 24 hours of treatment, Western blotting quantified with Image J
# T1 construct: 5.5×10^5 LNCap cells were injected into each well of a 6-well plate; endogenous in cells; host or cells: LNCaP
# T1 sequence (P10275 1-920 T878A): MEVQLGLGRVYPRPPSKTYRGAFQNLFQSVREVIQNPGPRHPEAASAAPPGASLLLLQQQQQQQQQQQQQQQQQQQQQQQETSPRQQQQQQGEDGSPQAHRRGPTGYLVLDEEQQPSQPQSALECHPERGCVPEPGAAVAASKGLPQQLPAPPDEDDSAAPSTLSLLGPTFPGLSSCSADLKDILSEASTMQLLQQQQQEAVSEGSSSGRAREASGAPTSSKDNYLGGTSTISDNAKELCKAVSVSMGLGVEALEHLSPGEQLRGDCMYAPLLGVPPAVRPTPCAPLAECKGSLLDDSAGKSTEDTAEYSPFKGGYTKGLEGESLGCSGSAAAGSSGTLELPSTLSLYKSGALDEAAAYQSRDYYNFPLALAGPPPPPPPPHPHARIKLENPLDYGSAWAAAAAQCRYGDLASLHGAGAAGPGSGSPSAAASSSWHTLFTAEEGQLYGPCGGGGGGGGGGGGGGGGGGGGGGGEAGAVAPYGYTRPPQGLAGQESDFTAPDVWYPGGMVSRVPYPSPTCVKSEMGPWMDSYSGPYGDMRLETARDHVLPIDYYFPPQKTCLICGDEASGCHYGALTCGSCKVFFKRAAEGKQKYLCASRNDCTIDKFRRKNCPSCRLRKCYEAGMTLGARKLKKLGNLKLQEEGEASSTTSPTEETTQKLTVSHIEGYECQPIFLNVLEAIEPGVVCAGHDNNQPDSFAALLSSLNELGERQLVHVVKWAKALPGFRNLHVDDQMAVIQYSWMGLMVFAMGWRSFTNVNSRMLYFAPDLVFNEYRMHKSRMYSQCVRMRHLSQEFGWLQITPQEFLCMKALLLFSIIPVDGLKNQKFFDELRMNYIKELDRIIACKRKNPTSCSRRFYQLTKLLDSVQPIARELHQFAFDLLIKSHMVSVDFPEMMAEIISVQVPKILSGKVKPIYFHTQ
# Summary of the method: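 LNCap cells seeded at 5.5×10^5 per well and treated with compound for 24 hours. Lysates prepared in RIPA buffer (pH 7.5, with protease inhibitors). AR protein levels assessed by Western blot with densitometric quantification.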
# VCaP cells = test: Cytotoxicity assessment (Cell-titer-glo cell viability), VCaP
# Protocol: In order to evaluate the androgen receptor (AR) cytotoxicity of the compounds according to the present invention, the following experiment was conducted. Specifically, 1.5×10^3 (LNCaP) or 4×10^3 (VCaP, 22RV1), respectively, of LNCaP, VCaP, and 22RV1 cells were injected into each well of a 96-well plate. The next day, each well was treated with the compound at a final concentration of 3 nM, 10 nM, 30 nM, 100 nM, 300 nM, 1 μM, 3 μM, and 10 μM. […] After 6 days of treatment, Cell-titer-glo (promega) was treated and reacted for 10 minutes, and cell viability was measured with a multimode plate reader (PerkinElmer, Inc.), and the change was quantified compared to when DMSO was treated.
# [1] = read-out: VCaP (CC50), VCaP cells, 6 days of treatment, Cell-titer-glo, vs DMSO
"remaining activity at 1 µM (Androgen receptor (AR); read-out: Degradation (1 μM treated in LNCaP, % AR remaining))",Structure (SMILES),"CC50 (VCaP cells; Homo sapiens, VCaP, 144 h, read-out: VCaP (CC50, μM))","Degradation (1 μM treated in LNCaP, % AR remaining) (Androgen receptor (AR))",CC50 (VCaP cells; [1])
25%,"CC1(C)[C@H](NC(=O)c2ccc(N3CCN(CC4(F)CCN(c5ccc6nnn(C7CCC(=O)NC7=O)c(=O)c6c5)CC4)CC3)cc2)C(C)(C)[C@H]1Oc1ccc(C#N)c(Cl)c1 (stereo partly shown) [Example 61, N-((1r,3r)-3-(3-chloro-4-cyanophenoxy)-2,2,4,4-tetramethylcyclobutyl)-4-(4-((1-(3-(2,6-dioxopiperidin-3-yl)-4-oxo-3,4-dihydrobenzo[d][1,2,3]triazin-6-yl)-4-fluoropiperidin-4-yl)methyl)piperazin-1-yl)benzamide]",0.29 µM,–,–
–,"CC1(C)C(NC(=O)c2ccc(-c3cnn(C4CCN(CC5CCN(C(=O)C6CCN(c7ccc8nnn(C9CCC(=O)NC9=O)c(=O)c8c7)CC6)CC5)CC4)c3)cc2)C(C)(C)C1Oc1ccc(C#N)c(Cl)c1 (stereo not shown) [Example 82, N-((1r,3r)-3-(3-chloro-4-cyanophenoxy)-2,2,4,4-tetramethylcyclobutyl)-4-(1-(1-((1-(1-(3-(2,6-dioxopiperidin-3-yl)-4-oxo-3,4-dihydrobenzo[d][1,2,3]triazin-6-yl)piperidine-4-carbonyl)piperidin-4-yl)methyl)piperidin-4-yl)-1H-pyrazol-4-yl)benzamide]",–,27%,0.0144 µM
–,"CC1(C)[C@H](NC(=O)c2ccc(C3CCN(CCOC4CCN(C(=O)C5CCN(c6ccc7nnn(C8CCC(=O)NC8=O)c(=O)c7c6)CC5)CC4)CC3)cc2)C(C)(C)[C@H]1Oc1ccc(C#N)c(Cl)c1 (stereo partly shown) [Example 74, N-((1r,3r)-3-(3-chloro-4-cyanophenoxy)-2,2,4,4-tetramethylcyclobutyl)-4-(1-(2-((1-(1-(3-(2,6-dioxopiperidin-3-yl)-4-oxo-3,4-dihydrobenzo[d][1,2,3]triazin-6-yl)piperidine-4-carbonyl)piperidin-4-yl)oxy)ethyl)piperidin-4-yl)benzamide]",–,20%,0.0732 µM
–,"CC1(C)[C@H](NC(=O)c2ccc(N3CCN(C(=O)CNc4ccc5nnn(C6CCC(=O)NC6=O)c(=O)c5c4)CC3)cc2)C(C)(C)[C@H]1Oc1ccc(C#N)c(Cl)c1 (stereo partly shown) [Example 40, N-((1r,3r)-3-(3-chloro-4-cyanophenoxy)-2,2,4,4-tetramethylcyclobutyl)-4-(4-((3-(2,6-dioxopiperidin-3-yl)-4-oxo-3,4-dihydrobenzo[d][1,2,3]triazin-6-yl)glycyl)piperazin-1-yl)benzamide]",–,19.7%,0.0243 µM
–,"CC1(C)[C@H](NC(=O)c2ccc(C3CCN(CC4CCN(C(=O)C5CCN(c6ccc7nnn(C8CCC(=O)NC8=O)c(=O)c7c6)CC5)CC4)CC3)cc2)C(C)(C)[C@H]1Oc1ccc(C#N)c(Cl)c1 (stereo partly shown) [Example 52, N-((1r,3r)-3-(3-chloro-4-cyanophenoxy)-2,2,4,4-tetramethylcyclobutyl)-4-(1-((1-(1-(3-(2,6-dioxopiperidin-3-yl)-4-oxo-3,4-dihydrobenzo[d][1,2,3]triazin-6-yl)piperidine-4-carbonyl)piperidin-4-yl)methyl)piperidin-4-yl)benzamide]",–,32.2%,0.0594 µM
–,"CC1(C)C(NC(=O)c2ccc(N3CCN(CCCOC4CCN(C(=O)CNc5ccc6nnn(C7CCC(=O)NC7=O)c(=O)c6c5)CC4)CC3)cc2)C(C)(C)C1Oc1ccc(C#N)c(Cl)c1 (stereo not shown) [Example 37, N-((1r,3r)-3-(3-chloro-4-cyanophenoxy)-2,2,4,4-tetramethylcyclobutyl)-4-(4-(3-((1-((3-(2,6-dioxopiperidin-3-yl)-4-oxo-3,4-dihydrobenzo[d][1,2,3]triazin-6-yl)glycyl)piperidin-4-yl)oxy)propyl)piperazin-1-yl)benzamide]",–,14.9%,0.0291 µM
–,"CC1(C)C(NC(=O)c2ccc(N3CC4CC3CN4C3CC4(CCN(C(=O)C5CCN(c6ccc7nnn(C8CCC(=O)NC8=O)c(=O)c7c6)CC5)CC4)C3)cc2)C(C)(C)C1Oc1ccc(C#N)c(Cl)c1 (stereo not shown) [Example 71, N-((1r,3r)-3-(3-chloro-4-cyanophenoxy)-2,2,4,4-tetramethylcyclobutyl)-4-(5-(7-(1-(3-(2,6-dioxopiperidin-3-yl)-4-oxo-3,4-dihydrobenzo[d][1,2,3]triazin-6-yl)piperidine-4-carbonyl)-7-azaspiro[3.5]nonan-2-yl)-2,5-diazabicyclo[2.2.1]heptan-2-yl)benzamide]",–,37%,0.0705 µM
–,"CC1(C)C(NC(=O)c2ccc(N3CCN(CC4CCN(c5ccc6nnn(C7CCC(=O)NC7=O)c(=O)c6c5)CC4)CC3)nc2)C(C)(C)C1Oc1ccc(C#N)c(Cl)c1 (stereo not shown) [Example 78, N-((1r,3r)-3-(3-chloro-4-cyanophenoxy)-2,2,4,4-tetramethylcyclobutyl)-6-(4-((1-(3-(2,6-dioxopiperidin-3-yl)-4-oxo-3,4-dihydrobenzo[d][1,2,3]triazin-6-yl)piperidin-4-yl)methyl)piperazin-1-yl)nicotinamide]",–,24%,0.00768 µM
–,"CC1(C)C(NC(=O)c2cnc(N3CCN(CC4CCN(C(=O)COc5ccc6nnn(C7CCC(=O)NC7=O)c(=O)c6c5)CC4)CC3)nc2)C(C)(C)C1Oc1ccc(C#N)c(Cl)c1 (stereo not shown) [Example 148, N-((1r,3r)-3-(3-chloro-4-cyanophenoxy)-2,2,4,4-tetramethylcyclobutyl)-2-(4-((1-(2-((3-(2,6-dioxopiperidin-3-yl)-4-oxo-3,4-dihydrobenzo[d][1,2,3]triazin-6-yl)oxy)acetyl)piperidin-4-yl)methyl)piperazin-1-yl)pyrimidine-5-carboxamide]",–,–,~0.01 µM
–,"CC1(C)C(NC(=O)c2ccc(N3CCN(Cc4cn(C5CCN(c6ccc7nnn(C8CCC(=O)NC8=O)c(=O)c7c6)CC5)nn4)CC3)cc2)C(C)(C)C1Oc1ccc(C#N)c(Cl)c1 (stereo not shown) [Example 105, N-((1r,3r)-3-(3-chloro-4-cyanophenoxy)-2,2,4,4-tetramethylcyclobutyl)-4-(4-((1-(1-(3-(2,6-dioxopiperidin-3-yl)-4-oxo-3,4-dihydrobenzo[d][1,2,3]triazin-6-yl)piperidin-4-yl)-1H-1,2,3-triazol-4-yl)methyl)piperazin-1-yl)benzamide]",–,–,0.0802 µM
–,"CC1(C)C(NC(=O)c2ccc(-n3cc(CN4CCN(C(=O)C5CN(c6ccc7nnn(C8CCC(=O)NC8=O)c(=O)c7c6)C5)CC4)nn3)cc2)C(C)(C)C1Oc1ccc(C#N)c(Cl)c1 (stereo not shown) [Example 122, N-((1r,3r)-3-(3-chloro-4-cyanophenoxy)-2,2,4,4-tetramethylcyclobutyl)-4-(4-((4-(1-(3-(2,6-dioxopiperidin-3-yl)-4-oxo-3,4-dihydrobenzo[d][1,2,3]triazin-6-yl)azetidine-3-carbonyl)piperazin-1-yl)methyl)-1H-1,2,3-triazol-1-yl)benzamide]",–,–,0.018 µM
–,"CC1(C)C(NC(=O)c2ccc(C#CC3CCN(CC4CCN(C(=O)C5CCN(c6ccc7nnn(C8CCC(=O)NC8=O)c(=O)c7c6)CC5)CC4)CC3)nc2)C(C)(C)C1Oc1ccc(C#N)c(Cl)c1 (stereo not shown) [Example 131, N-((1r,3r)-3-(3-chloro-4-cyanophenoxy)-2,2,4,4-tetramethylcyclobutyl)-6-((1-((1-(1-(3-(2,6-dioxopiperidin-3-yl)-4-oxo-3,4-dihydrobenzo[d][1,2,3]triazin-6-yl)piperidine-4-carbonyl)piperidin-4-yl)methyl)piperidin-4-yl)ethynyl)nicotinamide]",–,–,0.0185 µM
–,"CC1(C)[C@H](NC(=O)c2cnc(N3CCN(CC4CCN(c5ccc6nnn(C7CCC(=O)NC7=O)c(=O)c6c5)CC4)CC3)nc2)C(C)(C)[C@H]1Oc1ccc(C#N)c(Cl)c1 (stereo partly shown) [Example 100, N-((1r,3r)-3-(3-chloro-4-cyanophenoxy)-2,2,4,4-tetramethylcyclobutyl)-2-(4-((1-(3-(2,6-dioxopiperidin-3-yl)-4-oxo-3,4-dihydrobenzo[d][1,2,3]triazin-6-yl)piperidin-4-yl)methyl)piperazin-1-yl)pyrimidine-5-carboxamide]",–,–,0.002 µM
–,"CC1(C)C(NC(=O)c2ccc(C#CCC3CCN(CC4CCN(C(=O)C5CN(c6ccc7nnn(C8CCC(=O)NC8=O)c(=O)c7c6)C5)CC4)CC3)nc2)C(C)(C)C1Oc1ccc(C#N)c(Cl)c1 (stereo not shown) [Example 127, N-((1r,3r)-3-(3-chloro-4-cyanophenoxy)-2,2,4,4-tetramethylcyclobutyl)-6-(3-(1-((1-(1-(3-(2,6-dioxopiperidin-3-yl)-4-oxo-3,4-dihydrobenzo[d][1,2,3]triazin-6-yl)azetidine-3-carbonyl)piperidin-4-yl)methyl)piperidin-4-yl)prop-1-yn-1-yl)nicotinamide]",–,–,0.027 µM
